Data taken from US20200361895A1, “NOVEL SULFONAMIDE CARBOXAMIDE COMPOUNDS” (Inflazome Limited, priority 2017, published 2020).
Structures can show the parent of a compound that is named as a salt.

Key:
[1] = biological target: T1, NLRP3 (Homo sapiens, UniProt Q96P20); assay: THP-1 cells pyroptosis assay (LPS + nigericin, resazurin readout; THP IC50); assay type: cell-based; design: Seed THP-1 cells (25,000 cells/well) containing 1.0 μg/ml LPS in 40 μl of RPMI medium; host or cells: THP-1 cells
In short: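 IC50 from 4-parameter fit of resazurin fluorescence (100 μM, 1-2 hrs), reflecting surviving cells after pyroptosis. LPS-primed (1 μg/ml) THP-1 cells in FBS-free RPMI got compound for 3 hrs at 37° C (top 10 μM, half-log, 8 points), then nigericin 5 μM for 1 hr.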

[2] = biological target: T1, NLRP3; assay: Human whole blood IL1β release assay (LPS + nigericin, AlphaLisa IL-1β; HWB IC50); assay type: cell-based; design: Human whole blood in Li-heparin tubes was obtained from healthy donors from a volunteer donor panel; from tissue; host or cells: human whole blood from healthy donors; conditions: IL-1β release
Experimental: For systemic delivery, the ability to inhibit NLRP3 when the compounds are present within the bloodstream is of great importance. For this reason, the NLRP3 inhibitory activity of a number of compounds in human whole blood was investigated in accordance with the following protocol.
Human whole blood in Li-heparin tubes was obtained from healthy donors from a volunteer donor panel. • 1. Plate out 80 μl of whole blood containing 1 μg/ml of LPS in 96-well, clear bottom cell culture plate (Corning #3585) • 2. Add 10 μl compound (8 points half-log dilution with 10 μM top dose) or vehicle (DMSO 0.1% FAC) to the appropriate wells • 3. Incubate for 3 hrs at 37° C., 5% CO2 • 4. Add 10 μl nigericin (Sigma #N7143) (10 μM FAC) to all wells • 5. Incubate for 1 hr at 37° C., 5% CO2 • 6. At the end of the incubation period, spin plates at 300×g for 5 mins to pellet cells and remove 20 μl of supernatant and add to 96-well v-bottom plates for IL-1β analysis (note: these plates containing the supernatants can be stored at −80° C. to be analysed at a later date) • 7. IL-1β was measured according to the manufacturer protocol (Perkin Elmer-AlphaLisa IL-1 Kit AL220F-5000) • 8. IC50 data is fitted to a non-linear regression equation (log inhibitor vs response-variable slope 4-parameters)

T1 sequence (Q96P20 whole entry): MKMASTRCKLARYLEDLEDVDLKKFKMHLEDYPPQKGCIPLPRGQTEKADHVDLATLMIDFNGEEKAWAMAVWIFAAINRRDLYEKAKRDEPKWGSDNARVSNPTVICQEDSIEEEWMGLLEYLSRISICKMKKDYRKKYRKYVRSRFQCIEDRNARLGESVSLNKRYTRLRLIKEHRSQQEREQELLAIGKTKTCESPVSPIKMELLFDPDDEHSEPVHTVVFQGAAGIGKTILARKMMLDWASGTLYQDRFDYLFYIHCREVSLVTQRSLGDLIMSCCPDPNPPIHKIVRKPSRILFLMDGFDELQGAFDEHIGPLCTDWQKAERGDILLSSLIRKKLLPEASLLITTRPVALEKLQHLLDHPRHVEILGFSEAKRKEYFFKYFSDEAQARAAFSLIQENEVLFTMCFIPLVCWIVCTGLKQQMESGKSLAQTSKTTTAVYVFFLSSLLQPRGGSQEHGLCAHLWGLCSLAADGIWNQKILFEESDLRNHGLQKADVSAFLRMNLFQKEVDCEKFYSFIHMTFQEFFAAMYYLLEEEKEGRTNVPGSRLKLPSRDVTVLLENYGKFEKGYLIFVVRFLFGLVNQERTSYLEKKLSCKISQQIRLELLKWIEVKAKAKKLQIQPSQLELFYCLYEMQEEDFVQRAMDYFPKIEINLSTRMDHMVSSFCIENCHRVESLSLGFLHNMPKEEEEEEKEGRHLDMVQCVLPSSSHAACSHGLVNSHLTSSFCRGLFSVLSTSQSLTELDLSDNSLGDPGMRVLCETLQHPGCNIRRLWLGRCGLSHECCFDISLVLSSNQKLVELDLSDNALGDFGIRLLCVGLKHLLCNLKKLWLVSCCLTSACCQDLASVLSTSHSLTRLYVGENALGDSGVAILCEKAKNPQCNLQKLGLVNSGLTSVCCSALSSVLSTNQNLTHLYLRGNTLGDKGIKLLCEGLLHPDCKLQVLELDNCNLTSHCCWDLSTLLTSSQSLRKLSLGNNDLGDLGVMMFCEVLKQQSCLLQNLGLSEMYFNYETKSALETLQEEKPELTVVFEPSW

Row | IC50 [1] | IC50 [2] | SMILES
1 | ≤ 1000 nM | ≤ 5000 nM | CC(C)c1cc(F)cc(-c2ccccc2)c1NC(=O)NS(=O)(=O)c1cc(CN(C)C)n(C(C)C)n1 [Example 46, 5-((Dimethylamino)methyl)-N-((5-fluoro-3-isopropyl-[1,1′-biphenyl]-2-yl)carbamoyl)-1-isopropyl-1H-pyrazole-3-sulfonamide]
2 | ≤ 500 nM | ≤ 500 nM | CC(C)c1cc(F)cc(-c2ccnc(C#N)c2)c1NC(=O)NS(=O)(=O)c1cc(CN(C)C)n(C)n1 [Example 48, N-((2-(2-Cyanopyridin-4-yl)-4-fluoro-6-isopropylphenyl)carbamoyl)-5-((dimethylamino)methyl)-1-methyl-1H-pyrazole-3-sulfonamide]
3 | ≤ 500 nM | ≤ 500 nM | CCn1nc(S(=O)(=O)NC(=O)Nc2c(-c3ccnc(C#N)c3)cc(F)cc2C(C)C)cc1CN(C)C [Example 49, N-((2-(2-Cyanopyridin-4-yl)-4-fluoro-6-isopropylphenyl)carbamoyl)-5-((dimethylamino)methyl)-1-ethyl-1H-pyrazole-3-sulfonamide]
4 | ≤ 500 nM | ≤ 500 nM | COc1cc(-c2cc(F)cc(C(C)C)c2NC(=O)NS(=O)(=O)c2cc(C3(OC)COC3)n(C)n2)ccn1 [Example 52, N-((4-Fluoro-2-isopropyl-6-(2-methoxypyridin-4-yl)phenyl)carbamoyl)-5-(3-methoxyoxetan-3-yl)-1-methyl-1H-pyrazole-3-sulfonamide]
5 | ≤ 500 nM | ≤ 5000 nM | COc1cc(-c2cc(F)cc(C(C)C)c2NC(=O)NS(=O)(=O)c2cn(C(C)C)cn2)ccn1 [Example 53, N-((4-Fluoro-2-isopropyl-6-(2-methoxypyridin-4-yl)phenyl)carbamoyl)-1-isopropyl-1H-imidazole-4-sulfonamide]
6 | ≤ 500 nM | ≤ 500 nM | COc1cc(-c2ccc3c(c2NC(=O)NS(=O)(=O)c2ccn(C(C)C)n2)CCC3)ccn1 [Example 56, 1-Isopropyl-N-((5-(2-methoxypyridin-4-yl)-2,3-dihydro-1H-inden-4-yl)carbamoyl)-1H-pyrazole-3-sulfonamide]
7 | ≤ 1000 nM | ≤ 1000 nM | CC(C)c1cc(F)cc(-c2cccnc2)c1NC(=O)NS(=O)(=O)c1ccn(CCN(C)C)n1 [Example 57, 1-(2-(Dimethylamino)ethyl)-N-((4-fluoro-2-isopropyl-6-(pyridin-3-yl)phenyl)carbamoyl)-1H-pyrazole-3-sulfonamide]
8 | ≤ 500 nM | ≤ 500 nM | CCN(CC)CCCS(=O)(=O)NC(=O)Nc1c(-c2cccnc2)cc(F)cc1C(C)C [Example 58, 3-(Diethylamino)-N-((4-fluoro-2-isopropyl-6-(pyridin-3-yl)phenyl)carbamoyl)propane-1-sulfonamide]
9 | ≤ 500 nM | ≤ 1000 nM | COC1(c2cc(S(=O)(=O)NC(=O)Nc3c(-c4cccnc4)cc(F)c4c3CCC4)nn2C)COC1 [Example 59, N-((7-Fluoro-5-(pyridin-3-yl)-2,3-dihydro-1H-inden-4-yl)carbamoyl)-5-(3-methoxyoxetan-3-yl)-1-methyl-1H-pyrazole-3-sulfonamide]
10 | ≤ 500 nM | ≤ 5000 nM | CN(C)CCn1ccc(S(=O)(=O)NC(=O)Nc2c(-c3cccnc3)cc(F)c3c2CCC3)n1 [Example 62, 1-(2-(Dimethylamino)ethyl)-N-((7-fluoro-5-(pyridin-3-yl)-2,3-dihydro-1H-inden-4-yl)carbamoyl)-1H-pyrazole-3-sulfonamide]
11 | ≤ 500 nM | ≤ 500 nM | COc1cc(-c2cc(F)c3c(c2NC(=O)NS(=O)(=O)c2ccn(CCN(C)C)n2)CCC3)ccn1 [Example 63, 1-(2-(Dimethylamino)ethyl)-N-((7-fluoro-5-(2-methoxypyridin-4-yl)-2,3-dihydro-1H-inden-4-yl)carbamoyl)-1H-pyrazole-3-sulfonamide]
12 | ≤ 500 nM | ≤ 500 nM | CCn1nc(S(=O)(=O)NC(=O)Nc2c(-c3cccnc3)cc(F)c3c2CCC3)cc1CN(C)C [Example 65, 5-((Dimethylamino)methyl)-1-ethyl-N-((7-fluoro-5-(pyridin-3-yl)-2,3-dihydro-1H-inden-4-yl)carbamoyl)-1H-pyrazole-3-sulfonamide]
13 | ≤ 500 nM | ≤ 500 nM | CCn1nc(S(=O)(=O)NC(=O)Nc2c(-c3ccnc(OC)c3)cc(F)c3c2CCC3)cc1CN(C)C [Example 66, 5-((Dimethylamino)methyl)-1-ethyl-N-((7-fluoro-5-(2-methoxypyridin-4-yl)-2,3-dihydro-1H-inden-4-yl)carbamoyl)-1H-pyrazole-3-sulfonamide]
14 | ≤ 500 nM | ≤ 1000 nM | CCn1nc(S(=O)(=O)NC(=O)Nc2c(-c3cccc(C#N)c3)ccc3c2CCC3)cc1CN(C)C [Example 68, N-((5-(3-Cyanophenyl)-2,3-dihydro-1H-inden-4-yl)carbamoyl)-5-((dimethylamino)methyl)-1-ethyl-1H-pyrazole-3-sulfonamide]
15 | ≤ 500 nM | ≤ 500 nM | COc1cc(-c2ccc3c(c2NC(=O)NS(=O)(=O)c2ccc(=O)n(C(C)C)c2)CCC3)ccn1 [Example 70, 1-Isopropyl-N-((5-(2-methoxypyridin-4-yl)-2,3-dihydro-1H-inden-4-yl)carbamoyl)-6-oxo-1,6-dihydropyridine-3-sulfonamide]
16 | ≤ 500 nM | ≤ 1000 nM | CC(C)n1cc(S(=O)(=O)NC(=O)Nc2c(-c3ccnc(C#N)c3)ccc3c2CCC3)ccc1=O [Example 71, N-((5-(2-Cyanopyridin-4-yl)-2,3-dihydro-1H-inden-4-yl)carbamoyl)-1-isopropyl-6-oxo-1,6-dihydropyridine-3-sulfonamide, sodium salt]
17 | ≤ 500 nM | ≤ 1000 nM | CC(C)n1cc(S(=O)(=O)NC(=O)Nc2c(-c3ccnc(C#N)c3)ccc3c2CCC3)ncc1=O [Example 72, N-((5-(2-Cyanopyridin-4-yl)-2,3-dihydro-1H-inden-4-yl)carbamoyl)-4-isopropyl-5-oxo-4,5-dihydropyrazine-2-sulfonamide, sodium salt]
18 | ≤ 500 nM | ≤ 500 nM | COc1cc(-c2ccc3c(c2NC(=O)NS(=O)(=O)c2cn(C(C)C)c(=O)cn2)CCC3)ccn1 [Example 73, 4-Isopropyl-N-((5-(2-methoxypyridin-4-yl)-2,3-dihydro-1H-inden-4-yl)carbamoyl)-5-oxo-4,5-dihydropyrazine-2-sulfonamide, partial ammonium salt]
19 | ≤ 500 nM | ≤ 500 nM | COc1cc(-c2ccc3c(c2NC(=O)NS(=O)(=O)C2CN(C(C)C)C2)CCC3)ccn1 [Example 76, 1-Isopropyl-N-((5-(2-methoxypyridin-4-yl)-2,3-dihydro-1H-inden-4-yl)carbamoyl)azetidine-3-sulfonamide]
20 | ≤ 500 nM | ≤ 1000 nM | CC(C)N1CC(S(=O)(=O)NC(=O)Nc2c(-c3ccncc3)cc(F)c3c2CCC3)C1 [Example 77, N-((7-Fluoro-5-(pyridin-4-yl)-2,3-dihydro-1H-inden-4-yl)carbamoyl)-1-isopropylazetidine-3-sulfonamide]
21 | ≤ 500 nM | ≤ 1000 nM | O=C(Nc1c(-c2ccncc2)cc(F)c2c1CCC2)NS(=O)(=O)C1CN(C2CCC2)C1 [Example 81, 1-Cyclobutyl-N-((7-fluoro-5-(pyridin-4-yl)-2,3-dihydro-1H-inden-4-yl)carbamoyl)azetidine-3-sulfonamide]
